Measurements published in patent EP2616456B1, “NUCLEAR EXPORT INHIBITORS” (Universitätsmedizin der Johannes Gutenberg-Universität Mainz, priority 2010, dated 2012).
Entries after “also recorded” stand apart in the source; their conditions may differ.

Tests used:
[1] = system: RevNES-biosensor; assay: RevNES-biosensor translocation (NES-mediated nuclear export) in living HeLa cells, fluorescence microscopy; type: cell-based; details: for Cellular localization of green fluorescent RevNES-biosensor: HeLa
Method: The activity of compounds C3, C5 and C24 to inhibit NES-mediated nuclear export in living cells was analyzed as described in Fetz et al., 2009 using living HeLa (cervix carcinoma), FaDu (head and neck cancer), MDA-MB231 (mammacarcinoma) and SW480 cells (colon cancer) which transiently expressed the RevNES-biosensor. The RevNES-biosensor is a fusion protein composed of (from N to C terminus) the SV40 large T-antigen nuclear localization signal (NLS), glutathion-S-transferase (GST), green fluorescent protein (GFP) and the nuclear export signal (NES) of the HIV-1 (human immunodeficiency virus) Rev protein (RevNES).
The cells of the control were treated with a corresponding amount of DMSO only. The cellular localization of RevNES-biosensor was monitored by fluorescence microscopy. […] Maximum of cellular accumulation was observed after 1h (C24), after 2h (C3) and after 5h (C5), respectively. […] Thus, the inhibitory activity of C3 and C24 (reversible) but not of C5 (irreversible) was reversed after 24h. Table 1: Cellular localization of green fluorescent RevNES-biosensor
Table 3: Cellular localization of green fluorescent RevNES-biosensor
(§1) IC50 value corresponds to compound concentration reducing HeLa cell viability by 50%. Topt is the time point post treatment when maximum nuclear export inhibition was observed by fluorescence microscopy. Table 4: Functional characteristics of nuclear export inhibitors

[2] = system: Survivin; assay: Nuclear export of Survivin-GFP fusion transiently expressed in HeLa cells; type: cell-based; details: transient expression, 25µM
Method: The activity of compounds to inhibit the export of the oncologically relevant protein Survivin as well as of the HIV-1 Rev protein was analyzed.
Nuclear export of Survivin is crucial for its tumor promoting cytoprotective activity (Engels et al., 2007; Knauer et al., 2007a; Knauer et al., 2007b).

[3] = system: HTF-8; assay: Viability (CellTiter-Glo) and cell death of non-malignant primary fibroblasts HTF-8; type: cell-based; details: HTF-8 non-malignant primary human fibroblasts, 100µM, 72h
Method: It was assessed whether the export inhibitors also affect the viability of non-malignant human cells, precluding their potential (pre)clinical use. […] Every 24h cell culture medium was replaced by freshly prepared compound-containing medium. 72h post treatment the cells were analyzed by adding 100µl CellTiter-Glo® assay reagent, and luminescence measured with a LuminoskanAscent (ThermoScientific). Cells treated with DMSO only were used as a control. The fluorescence measured (equals cell viability) with said control was set to 100%.

[4] = system: HeLa cells; assay: Cell viability (CellTiter-Glo) and cell death, HeLa; type: cell-based; details: Homo sapiens; compound concentration reducing HeLa cell viability by 50%
Method: To test the anti-cancer activity of the compounds, several cancer cell lines, currently used as models for different epithelial cancers and leukemias, were treated with the indicated inhibitors. […] Every 24h, the cell culture medium was replaced by fresh compound-containing medium. 72h post treatment, cell were analyzed by adding 100µl CellTiter-Glo® assay reagent (Promega). Luminescence was measured with a LuminoskanAscent device (ThermoScientific). Cells treated with a corresponding amount of DMSO only were use as a control. The luminescence (equals cell viability) of said control was set to 100%.
as §1
It was assessed whether the export inhibitors also affect the viability of non-malignant human cells, precluding their potential (pre)clinical use. 10^3 freshly isolated non-malignant primary human fibroblasts (HTF-8) or HeLa cells/well were seeded and 24h later treated with the indicated compounds (final concentration: 100µM). Every 24h cell culture medium was replaced by freshly prepared compound-containing medium. 72h post treatment the cells were analyzed by adding 100µl CellTiter-Glo® assay reagent, and luminescence measured with a LuminoskanAscent (ThermoScientific). Cells treated with DMSO only were used as a control. The fluorescence measured (equals cell viability) with said control was set to 100%.

[5] = system: HIV-1 Rev protein; assay: Nuclear export of HIV-1 Rev-GFP in actinomycin D treated HeLa cells; type: cell-based; details: 25µM
From the text: The HIV-1 Rev protein transports unspliced and incompletely spliced viral RNAs from the nucleus into the cytoplasm (Stauber et al., 1995). As such, Rev's export function is crucial for viral replication and AIDS development (Pavlakis and Stauber, 1998; Stauber et al., 1995).

[6] = target: human CRM1 (Crm1-HA) (Homo sapiens, UniProt O14980); assay: In vitro pull-down of Crm1-HA with GST-SurvivinNES-GFP beads; type: binding; details: preincubation 400nM, 30min at 4°C
Method: The binding of LMB and of compounds C3 and C5 to CRM1 was examined by in vitro pull-down assays as described by Stauber et al., 2006. Briefly, in vitro coupled transcription/translation was performed using the TNT reticulocyte lysate system (Promega, Madison, WI, USA) supplemented with methionine (Promega, Madison, WI, USA) and plasmid pCrm1_HA (1µg), encoding a hemagglutinin epitope-tagged version of human CRM1 (Crm1-HA), as the template. Equal amounts of the Crm1-HA TNT reaction were preincubated with either DMSO (negative control; 0.1%), LMB (400nM, final concentration), C3 (1 mM; final concentration) or C5 (1mM; final concentration) in binding-buffer containing 5mM MgCl2 (AppliChem, Darmstadt, Germany), 2mM GTP (PEQLAB, Erlangen, Germany), 50mM Hepes pH 7.9 (AppliChem, Darmstadt, Germany), 200mM KCI (AppliChem, Darmstadt, Germany), 0.4% Tween 20 (AppliChem, Darmstadt, Germany), supplemented with complete protease inhibitor cocktail (Roche, Mannheim, Germany) for 30min at 4°C. Subsequently, GST-Sepharose beads loaded with 25µg recombinant GST-SurvivinNES-GFP and 5µg GST-RanQ96L were added to each drug-treated TNT reaction. Recombinant GST-SurvivinNES-GFP and GST-RanQ96L were purified from bacteria as described by Stauber et al., 2006. Pull-down was performed for 4h at 4°C in a rotating wheel. Samples were then centrifuged (3500rpm, 1min, 4°C) to recover the GST-SurvivinNES-GFP beads with bound Crm1-HA. Beads were washed three times with binding-buffer (500µl each washing step, 3500rpm, 1min, 4°C). Finally, bound proteins were eluted by adding 25µl 2xSDS-sample buffer (250mM Tris-HCl pH 6.8; 2% w/v SDS, 20% glycerol, 2% β-mercaptoethanol, 0.002% w/v bromophenol blue) and incubating at 95°C for 2min. Samples were separated by SDS-gelelectrophoresis and analyzed by immunoblot analysis as described by Stauber et al., 2006. Crm1-HA was detected with HA specific antibodies (MMS-101R, Covance, New Jersey, USA). GFP served as the loading control and was visualized with GFP specific antibodies (sc-8334, Santa Cruz Biotechnology, Heidelberg, Germany).

human CRM1 (Crm1-HA), sequence (O14980 whole entry): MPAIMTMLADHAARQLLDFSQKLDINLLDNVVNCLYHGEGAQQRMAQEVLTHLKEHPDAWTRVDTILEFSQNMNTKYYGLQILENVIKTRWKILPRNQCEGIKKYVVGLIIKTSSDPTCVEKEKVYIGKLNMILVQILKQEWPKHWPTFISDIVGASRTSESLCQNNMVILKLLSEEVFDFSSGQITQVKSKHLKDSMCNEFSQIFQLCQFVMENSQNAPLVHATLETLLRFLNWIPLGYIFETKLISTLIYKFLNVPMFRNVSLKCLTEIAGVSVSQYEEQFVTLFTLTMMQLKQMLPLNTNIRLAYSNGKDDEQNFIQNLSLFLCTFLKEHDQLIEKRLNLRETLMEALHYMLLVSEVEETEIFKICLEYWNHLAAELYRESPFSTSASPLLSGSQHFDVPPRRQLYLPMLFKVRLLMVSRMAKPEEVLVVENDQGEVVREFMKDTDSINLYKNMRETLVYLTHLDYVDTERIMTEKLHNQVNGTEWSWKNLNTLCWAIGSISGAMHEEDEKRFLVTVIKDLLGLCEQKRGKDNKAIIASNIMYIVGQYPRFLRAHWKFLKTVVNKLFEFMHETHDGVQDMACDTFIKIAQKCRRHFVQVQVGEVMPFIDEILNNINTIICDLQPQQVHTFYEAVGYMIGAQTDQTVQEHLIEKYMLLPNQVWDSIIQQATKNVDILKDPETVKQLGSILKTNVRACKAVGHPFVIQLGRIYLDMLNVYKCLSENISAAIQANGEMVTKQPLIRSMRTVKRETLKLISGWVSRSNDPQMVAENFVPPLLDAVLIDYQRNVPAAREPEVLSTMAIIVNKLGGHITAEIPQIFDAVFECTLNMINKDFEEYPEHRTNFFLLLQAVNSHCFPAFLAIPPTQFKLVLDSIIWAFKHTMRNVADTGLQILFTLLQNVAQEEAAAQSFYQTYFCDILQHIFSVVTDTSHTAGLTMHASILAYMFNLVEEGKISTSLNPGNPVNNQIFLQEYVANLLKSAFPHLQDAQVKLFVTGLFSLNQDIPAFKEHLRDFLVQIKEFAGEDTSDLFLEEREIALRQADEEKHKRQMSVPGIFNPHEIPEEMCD

| SMILES | Cellular localization of green fluorescent RevNES-biosensor ([1]; 25µM, T = 24h) | Cellular localization of green fluorescent RevNES-biosensor ([1]; 25µM, at Topt) | Topt at 25µM ([1]; Table 4, 25µM, fluorescence microscopy) | Mode of Inhibition ([1]; reversal of export inhibition after 24h, C5: 5-12h observation) | Localization of Survivin-GFP fusion (nuclear export of Survivin) [2] | viability compared to the control [3] | IC50 [4] | Localization of HIV-1 Rev-GFP (nuclear export of HIV-1 Rev protein) [5] | interaction of Crm1-HA with the export substrate GST-SurvivinNES-GFP [6] |
| --- | --- | --- | --- | --- | --- | --- | --- | --- | --- |
| NC(=O)c1c(NC(NC(=O)c2cccc(F)c2)(C(F)(F)F)C(F)(F)F)sc2c1CCC2 [Compound C24, 2-[[1,1,1,3,3,3-hexafluoro-2-[(3-fluorobenzoyl)amino]propan-2-yl]amino]-5,6-dihydro-4H-cyclopenta[b]thiophene-3-carboxamide] | predominantly localized in the cytoplasm | nuclear accumulation; also recorded: nucleus | ∼1h | reversible | accumulated in the nucleus | do not affect viability | 31 µM | restored the nuclear accumulation | – |
| CCC(=C/[C@H](C)C/C=C/C(C)=C/[C@@H](C)C(=O)[C@@H](C)[C@H](O)[C@@H](C)C/C(C)=C/C(=O)O)/C=C/[C@@H]1OC(=O)C=C[C@@H]1C [LMB, leptomycin B, reference compound] | – | – | – | – | – | – | – | – | prevented the interaction |
